Results taken from ChEMBL document CHEMBL1909046, “DrugMatrix in vitro pharmacology data”.

Key:
[1] = target: T1, Cholecystokinin receptor type A (Homo sapiens, UniProt P32238); type: cell membranes, Membrane; settings: 1321-n1; note: in other assays of this panel Not Active means under 50% inhibition at 10 µM
T1 sequence (P32238 whole entry): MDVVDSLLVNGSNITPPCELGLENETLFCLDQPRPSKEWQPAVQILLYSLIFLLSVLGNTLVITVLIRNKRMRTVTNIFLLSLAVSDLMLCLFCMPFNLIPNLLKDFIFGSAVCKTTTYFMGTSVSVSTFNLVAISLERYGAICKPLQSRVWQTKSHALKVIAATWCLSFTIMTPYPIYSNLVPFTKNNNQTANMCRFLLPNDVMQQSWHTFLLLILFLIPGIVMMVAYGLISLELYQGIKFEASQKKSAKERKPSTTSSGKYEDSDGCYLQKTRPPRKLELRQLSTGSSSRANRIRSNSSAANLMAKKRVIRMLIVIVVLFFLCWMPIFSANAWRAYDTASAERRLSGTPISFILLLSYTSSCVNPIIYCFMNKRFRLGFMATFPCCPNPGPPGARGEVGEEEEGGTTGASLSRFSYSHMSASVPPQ

[2] = target: T2, Neuropeptide Y receptor type 2 (Homo sapiens, UniProt P49146); type: cell membranes, Membrane; settings: kan-ts; note: in other assays of this panel Not Active means under 50% inhibition at 10 µM
T2 sequence (P49146 whole entry): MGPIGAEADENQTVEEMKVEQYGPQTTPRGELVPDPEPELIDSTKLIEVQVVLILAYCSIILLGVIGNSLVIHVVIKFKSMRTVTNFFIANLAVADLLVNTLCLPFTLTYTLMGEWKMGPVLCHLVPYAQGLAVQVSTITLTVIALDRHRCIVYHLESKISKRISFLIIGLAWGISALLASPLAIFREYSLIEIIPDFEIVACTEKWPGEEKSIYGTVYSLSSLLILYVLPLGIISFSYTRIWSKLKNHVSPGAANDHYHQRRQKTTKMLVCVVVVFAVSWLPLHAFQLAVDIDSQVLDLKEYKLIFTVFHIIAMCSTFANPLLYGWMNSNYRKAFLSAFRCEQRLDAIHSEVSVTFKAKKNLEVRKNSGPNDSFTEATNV

[3] = target: Epidermal growth factor receptor (Homo sapiens, UniProt P00533); assay: DRUGMATRIX: Protein Tyrosine Kinase, EGF Receptor enzyme inhibition (substrate: Poly(Glu:Tyr)); type: cell-based, Insect cells; settings: Not Active = under 50% inhibition at 10 µM
Chain of Epidermal growth factor receptor (P00533 whole entry): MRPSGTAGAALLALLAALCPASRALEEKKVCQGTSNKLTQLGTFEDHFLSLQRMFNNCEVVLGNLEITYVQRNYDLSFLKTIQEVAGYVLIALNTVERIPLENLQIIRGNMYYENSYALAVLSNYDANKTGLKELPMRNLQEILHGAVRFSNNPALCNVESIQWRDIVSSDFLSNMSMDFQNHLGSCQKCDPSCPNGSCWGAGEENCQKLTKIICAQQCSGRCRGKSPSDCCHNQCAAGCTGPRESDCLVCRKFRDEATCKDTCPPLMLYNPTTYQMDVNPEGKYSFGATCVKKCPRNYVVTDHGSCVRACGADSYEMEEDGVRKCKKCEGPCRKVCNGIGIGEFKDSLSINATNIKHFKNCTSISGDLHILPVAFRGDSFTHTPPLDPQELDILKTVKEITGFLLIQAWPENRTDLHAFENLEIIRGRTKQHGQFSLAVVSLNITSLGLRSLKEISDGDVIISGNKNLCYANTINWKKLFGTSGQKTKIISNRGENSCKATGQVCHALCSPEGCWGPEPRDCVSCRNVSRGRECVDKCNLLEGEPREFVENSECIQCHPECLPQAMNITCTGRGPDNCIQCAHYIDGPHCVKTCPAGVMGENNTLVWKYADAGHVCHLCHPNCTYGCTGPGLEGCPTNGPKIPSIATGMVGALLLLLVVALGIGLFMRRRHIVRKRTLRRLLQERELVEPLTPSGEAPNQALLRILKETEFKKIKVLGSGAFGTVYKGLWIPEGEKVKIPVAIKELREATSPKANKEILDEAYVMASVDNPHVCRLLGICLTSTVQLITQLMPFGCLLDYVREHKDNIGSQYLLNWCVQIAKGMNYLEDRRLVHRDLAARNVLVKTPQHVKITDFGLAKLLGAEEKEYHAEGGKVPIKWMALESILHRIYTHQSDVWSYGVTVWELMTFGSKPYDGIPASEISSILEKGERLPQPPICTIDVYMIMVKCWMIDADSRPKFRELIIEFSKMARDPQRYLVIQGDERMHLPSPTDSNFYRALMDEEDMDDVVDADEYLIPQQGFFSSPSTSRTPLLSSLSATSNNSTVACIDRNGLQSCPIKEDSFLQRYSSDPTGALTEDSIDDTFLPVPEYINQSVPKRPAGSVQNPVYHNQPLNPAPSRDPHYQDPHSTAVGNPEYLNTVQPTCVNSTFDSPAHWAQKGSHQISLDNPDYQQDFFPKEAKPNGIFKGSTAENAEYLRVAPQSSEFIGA

[4] = target: 5-hydroxytryptamine receptor 1B (Rattus norvegicus, UniProt P28564); type: cell membranes, Wistar, Cerebral cortex, Membrane; settings: for Ki: read-out: Ki; for all read-outs here: in other assays of this panel Not Active means under 50% inhibition at 10 µM
Chain of 5-hydroxytryptamine receptor 1B (P28564 whole entry): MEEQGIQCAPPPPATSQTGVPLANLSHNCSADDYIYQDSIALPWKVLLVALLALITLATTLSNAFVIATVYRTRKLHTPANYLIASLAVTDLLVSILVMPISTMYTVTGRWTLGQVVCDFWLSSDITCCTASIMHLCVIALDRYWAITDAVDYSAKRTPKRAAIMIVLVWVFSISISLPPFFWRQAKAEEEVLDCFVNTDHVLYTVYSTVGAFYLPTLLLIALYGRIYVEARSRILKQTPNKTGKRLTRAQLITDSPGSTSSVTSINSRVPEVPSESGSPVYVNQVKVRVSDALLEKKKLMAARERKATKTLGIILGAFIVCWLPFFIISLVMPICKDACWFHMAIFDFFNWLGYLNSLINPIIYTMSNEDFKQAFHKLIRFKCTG

[5] = DRUGMATRIX: Glutamate, NMDA, Agonism radioligand binding (ligand: [3H] CGP-39653); type: cell membranes, Rattus norvegicus, Wistar, Cerebral cortex, Membrane; settings: Not Active = under 50% inhibition at 10 µM
[6] = target: T3, Muscarinic acetylcholine receptor M4 (Homo sapiens, UniProt P08173); type: cell membranes, CHO-K1, Membrane; note: in other assays of this panel Not Active means under 50% inhibition at 10 µM
T3 sequence (P08173 whole entry): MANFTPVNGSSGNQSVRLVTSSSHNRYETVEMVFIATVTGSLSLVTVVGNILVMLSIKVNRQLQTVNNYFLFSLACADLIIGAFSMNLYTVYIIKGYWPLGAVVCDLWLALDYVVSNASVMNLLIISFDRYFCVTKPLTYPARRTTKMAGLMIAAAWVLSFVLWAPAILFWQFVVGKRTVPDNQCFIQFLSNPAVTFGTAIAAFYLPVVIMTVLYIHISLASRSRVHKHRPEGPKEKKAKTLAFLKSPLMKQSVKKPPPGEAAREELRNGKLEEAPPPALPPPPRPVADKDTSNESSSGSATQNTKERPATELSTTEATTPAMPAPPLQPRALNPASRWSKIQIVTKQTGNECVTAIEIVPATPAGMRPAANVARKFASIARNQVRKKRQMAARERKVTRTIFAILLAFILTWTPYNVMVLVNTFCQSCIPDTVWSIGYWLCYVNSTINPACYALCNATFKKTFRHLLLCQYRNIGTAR

Structure (SMILES)	IC50 [1]	IC50 [2]	IC50 ([3]; insect cells)	IC50 ([4]; read-out: IC50)	Ki [4]	IC50 [5]	Ki [5]	IC50 ([6]; cho-k1)	IC50 [4]	IC50 ([3]; read-out: IC50)	IC50 ([6]; read-out: IC50)	Ki ([6]; read-out: Ki)
Cc1cc2c(s1)Nc1ccccc1N=C2N1CCN(C)CC1 [OLANZAPINE]	Not Active	Not Active	Not Active	707 nM	433 nM	–	–	–	–	–	–	–
CC1(C)[C@H](C(=O)O)N2C(=O)C[C@H]2S1(=O)=O [SULBACTAM]	Not Active	Not Active	Not Active	–	–	Not Active	Not Active	Not Active	Not Active	–	–	–
Oc1ccc(/C=C/c2cc(O)cc(O)c2)cc1 [RESVERATROL]	Not Active	Not Active	Not Active	–	–	Not Active	Not Active	Not Active	Not Active	–	–	–
O=C1CC[C@@]2(O)[C@H]3Cc4ccc(O)c5c4[C@@]2(CCN3CC2CC2)[C@H]1O5 [NALTREXONE]	Not Active	Not Active	Not Active	–	–	Not Active	Not Active	Not Active	Not Active	–	–	–
Cc1nnc(NS(=O)(=O)c2ccc(N)cc2)s1 [SULFAMETHIZOLE]	Not Active	Not Active	Not Active	–	–	Not Active	Not Active	Not Active	Not Active	–	–	–
C=CCc1ccc2c(c1)OCO2 [SAFROLE]	Not Active	Not Active	Not Active	–	–	Not Active	Not Active	Not Active	Not Active	–	–	–
Cc1cn([C@H]2C=C[C@@H](CO)O2)c(=O)[nH]c1=O [STAVUDINE]	Not Active	Not Active	Not Active	–	–	Not Active	Not Active	Not Active	Not Active	–	–	–
CC1=C(/C=C/C(C)=C/C=C/C(C)=C/C(=O)O)C(C)(C)CCC1 [TRETINOIN]	Not Active	Not Active	Not Active	–	–	Not Active	Not Active	Not Active	Not Active	–	–	–
Nc1nc(N)c2nc(-c3ccccc3)c(N)nc2n1	Not Active	Not Active	Not Active	–	–	Not Active	Not Active	Not Active	Not Active	–	–	–
CN1C(=O)OC(C)(C)C1=O [TRIMETHADIONE]	Not Active	Not Active	Not Active	–	–	Not Active	Not Active	Not Active	Not Active	–	–	–
Cc1ccc(S(=O)(=O)NC(=O)NN2CCCCCC2)cc1 [TOLAZAMIDE]	Not Active	Not Active	Not Active	–	–	Not Active	Not Active	Not Active	Not Active	–	–	–
O=C(O)c1cc(/N=N/c2ccc(S(=O)(=O)Nc3ccccn3)cc2)ccc1O [SULFASALAZINE]	Not Active	Not Active	Not Active	–	–	Not Active	Not Active	Not Active	Not Active	–	–	–
CCN(CC)C(=S)SSC(=S)N(CC)CC	Not Active	Not Active	Not Active	4720 nM	2150 nM	Not Active	Not Active	Not Active	–	–	–	–
CS(=O)(=O)c1ccc(C2=C(c3ccccc3)C(=O)OC2)cc1 [ROFECOXIB]	Not Active	Not Active	Not Active	–	–	Not Active	Not Active	Not Active	Not Active	–	–	–
Cc1cnc(NC(=O)C2=C(O)c3ccccc3S(=O)(=O)N2C)s1 [MELOXICAM]	Not Active	Not Active	Not Active	–	–	Not Active	Not Active	Not Active	Not Active	–	–	–
C1CCN2C[C@@H]3C[C@@H](CN4CCCC[C@@H]34)[C@H]2C1 [SPARTEINE]	Not Active	Not Active	Not Active	–	–	Not Active	Not Active	Not Active	Not Active	–	–	–
CO[C@@H]1[C@@H](OC)[C@H](C)[C@@](O)(CC(=O)O)O[C@H]1[C@H](C)[C@H]1O[C@@]2(CC[C@@](C)([C@H]3CC[C@@](C)([C@@H]4O[C@@H]([C@H]5O[C@](C)(O)[C@H](C)C[C@@H]5C)C[C@@H]4O[C@@H]4C[C@H](OC)[C@@H](OC)[C@H](C)O4)O3)O2)C[C@H](O)[C@H]1C.N [MADURAMICIN]	Not Active	Not Active	Not Active	–	–	Not Active	Not Active	Not Active	Not Active	–	–	–
CC[C@@]1(O)C(=O)OCc2c1cc1n(c2=O)Cc2cc3c(CN(C)C)c(O)ccc3nc2-1 [TOPOTECAN]	Not Active	Not Active	Not Active	–	–	Not Active	Not Active	Not Active	Not Active	–	–	–
C#C[C@]1(O)CC[C@H]2[C@@H]3[C@H](C)CC4=C(CCC(=O)C4)[C@H]3CC[C@@]21C [TIBOLONE]	Not Active	Not Active	Not Active	–	–	Not Active	Not Active	Not Active	Not Active	–	–	–
C[N+]1(C)[C@@H]2C[C@@H](OC(=O)[C@H](CO)c3ccccc3)C[C@H]1[C@@H]1O[C@@H]12.[Br-] [METHSCOPOLAMINE BROMIDE]	Not Active	Not Active	Not Active	–	–	Not Active	Not Active	–	Not Active	–	–	–
CC[C@H](C)[C@@H](CO[C@@H](Cc1ccccc1)C(=O)N[C@@H](CCS(C)(=O)=O)C(=O)OC(C)C)NC[C@@H](N)CS	Not Active	Not Active	–	–	–	Not Active	Not Active	Not Active	Not Active	3220 nM	–	–
CCN1CCCC1CNC(=O)c1cc(S(N)(=O)=O)ccc1OC (stereo not given) [SULPIRIDE]	Not Active	Not Active	Not Active	–	–	Not Active	Not Active	Not Active	Not Active	–	–	–
CC[C@H](C)C(=O)O[C@H]1CCC=C2C=C[C@H](C)[C@H](CC[C@@H]3C[C@@H](O)CC(=O)O3)[C@H]21 [MEVASTATIN]	Not Active	Not Active	Not Active	–	–	Not Active	Not Active	Not Active	Not Active	–	–	–
C[C@]12CCC(=O)C[C@@H]1CC[C@@H]1[C@@H]2CC[C@]2(C)[C@@H](O)CC[C@@H]12 [STANOLONE]	Not Active	Not Active	Not Active	–	–	Not Active	Not Active	Not Active	Not Active	–	–	–
CC(N)C12CC3CC(CC(C3)C1)C2 (stereo not given) [RIMANTADINE]	Not Active	Not Active	Not Active	–	–	Not Active	Not Active	Not Active	Not Active	–	–	–
Cc1cccc(C)c1NC(=O)C(C)N (stereo not given) [TOCAINIDE]	Not Active	Not Active	Not Active	–	–	Not Active	Not Active	Not Active	Not Active	–	–	–
CNCCCC12CCC(c3ccccc31)c1ccccc12 [MAPROTILINE]	Not Active	Not Active	Not Active	–	–	–	–	–	Not Active	–	413 nM	58 nM
CN(C)CCC=C1c2ccccc2COc2ccccc21 [DOXEPIN]	–	Not Active	Not Active	–	–	–	–	–	Not Active	–	–	–
COC(=O)Nc1nc2ccc(C(=O)c3ccccc3)cc2[nH]1 [MEBENDAZOLE]	Not Active	Not Active	–	–	–	Not Active	Not Active	Not Active	Not Active	–	–	–
